Tests used:
[1] = system: caspase-3; assay: Caspase-3 activity in DU145 cells (fluorimetric immunosorbent enzyme assay); assay type: cell-based, human
Description: FIG. 5. Measurement of Caspase-3 Activity in Resveratrol-treated DU145 cells. […] Activity of proteolytic cleavage was determined fluorometrically using Ac-DEVD-AFC as a substrate for activated caspase-3 immobilized on the well surface. The results represent mean±SD of triplicate determinations. The positive control (“Post. Ctl”) was camptothecin-induced apoptosis in U937 cells.
FIG. 6. Measurement of Caspase-3 Activity of KST-201-treated DU145 cells as a function of dose. […] Activity of proteolytic cleavage (caspase-3 activity) and other details are as above.
FIG. 7. Time course of Caspase-3 Activation by KST201 in DU145 cells as a measure of apoptosis. DU145 cells were treated at CD50 of KST201 for 12, 24 or 48 hours. Details are as described for FIG. 5.
The proteolytic activity of caspase-3 in DU145 cells, was measured using a fluorimetric immunosorbent enzyme assay kit. […] After washing and centrifuging, the cell pellet was collected and incubated with dithiothreitol (DTT) lysis buffer on ice. The cell lysate was then transferred to a centrifuge tube for measurement of proteolytic cleavage by caspase-3 utilizing a fluorimetric immunosorbent enzyme assay kit (Roche, Indianapolis, Ind.). Antibody against caspase-3 was diluted in the coating buffer and immobilized to the surface of 96-well plates followed by washing steps. Compound-treated cell lysates and the untreated controls were added to the plate and incubated for one hour at 37° C. Any caspase-3 in the samples was captured by the immobilized antibody. The caspase-3 enzyme cleaved its fluorogenic substrate Ac-DEVD-AFC when it was added to the wells, resulting in. free fluorescent AFC that was measured in a Fluoroskan® Ascent FL plate reader (Thermo, Waltham, Mass.) with a filter set at an excitation/emission of 390 nm/[…]. The fluorescence intensity was proportional to the concentration of AFC determined by a standard curve, generated by different dilutions of AFC standard included in the kit. The amount of activated caspase-3 in the sample was derived from this curve.

[2] = system: bladder cancer; assay: Bladder cancer patients (Example VIII B); assay type: in vivo, human; settings: intravenous 10 μg to 5 mg/kg over three months
Description: A group of 20 men and 20 women aged 50-75 with bladder cancer are treated by intravenous injection of between 10 μg and 5 mg/kg of KST-201, KST-213, KST-301 or KST-401. Each compound is given to a group of 5 men and 5 women) over a period of three months. Clinical, radiographic and histopathological tests show significant remission in 35% of patients, accompanied by signs of cell death in 45%. There are no significant differences between the results with the four compounds.

[3] = system: breast cancer; assay: Breast cancer prevention, skin patch (Example VIII C); assay type: in vivo, human; settings: transdermal patch 10 mg to 100 mg daily, one-year study
Description: This study investigates whether KST-201, KST-213, KST-301 and KST-401 administered transdermally each day through a skin patch aid in preventing breast cancer or metastatic cancer following cancer therapy. Patches are prepared with a lipophilic carrier which is readily absorbed through the skin (glycerol cold cream containing glycerin and peanut oil). The HT compound is mixed with the lipophilic cream such that each patch comprises 10 mg to 100 mg of active compound. The patch is applied to the skin each day, and rapid absorption occurs. After two hours, the patch is removed.

[4] = system: DU145 cells; assay: Flow cytometric cell cycle analysis of DU145 cells; assay type: cell-based, human
Description: Initially, the mechanism(s) responsible for the antitumor activity of KST-201 were tested in the DU145 cell line. […] The cell cycle distribution of sham-treated (FIG. 4, upper left) DU145 cells or DU145 cells treated with KST-201 at 14 μM (FIG. 4, upper right), 28 μM (FIG. 4, lower left) or 56 μM (FIG. 4, lower right) were determined by flow cytometry.

Structure (SMILES): Oc1ccc(C#Cc2ccc(O)cc2)cc1 [KST-201, 4,4′-dihydroxytolan]
- Caspase-3 activation ([1]; 0.5×CD50, 24 hr): effectively activated caspase-3
- Caspase-3 activity ([1]; 48 hours or 2×CD50): loss of caspase-3 activity
- Caspase-3 activation ([1]; CD50 concentration, 24 hr): activated significantly
- Patients with signs of cell death [2]: 45%
- Patients with significant remission ([2]; no differences between compounds): 35%
- Breast cancer or metastatic cancer in high-risk group [3]: does not show any evidence of breast cancer or other metastatic cancer
- Phase of Cell Cycle S ([4]; 14 μM, untreated 40): 28
- Phase of Cell Cycle G0/G1 ([4]; 14 μM, untreated 46): 72
- Phase of Cell Cycle G0/G1 ([4]; 28 μM): 77
- Phase of Cell Cycle G2/M ([4]; 28 μM): 3
- Phase of Cell Cycle S ([4]; 28 μM): 20
- Phase of Cell Cycle G0/G1 ([4]; 56 μM): 78
- Phase of Cell Cycle G2/M ([4]; 56 μM): 4
- Phase of Cell Cycle S ([4]; 56 μM): 18
- Effect on cell cycle (in words) ([4]; 14, 28 and 56 μM): G0/G1-S cell cycle arrest

Source: patent US8716355B2, “Hydroxylated tolans and related compounds in the treatment of a cancer” (Kent State University, priority 2007, dated 2014)
